Experimental data from ChEMBL document CHEMBL1126815, “Synthesis and squalene synthetase inhibitory activity of tripotassium 1-methyl-1-[(N-benzyl-N-farnesyl)aminoethylphosphinato]ethylphosphonate as a tethered analog of N-benzyl-N-farnesylamine-inorganic pyrophosphate ion pair” (Bioorg Med Chem Lett, 1993).

Molecular target: T1, Squalene synthase (Rattus norvegicus, UniProt Q02769)
T1 sequence (Q02769 whole entry): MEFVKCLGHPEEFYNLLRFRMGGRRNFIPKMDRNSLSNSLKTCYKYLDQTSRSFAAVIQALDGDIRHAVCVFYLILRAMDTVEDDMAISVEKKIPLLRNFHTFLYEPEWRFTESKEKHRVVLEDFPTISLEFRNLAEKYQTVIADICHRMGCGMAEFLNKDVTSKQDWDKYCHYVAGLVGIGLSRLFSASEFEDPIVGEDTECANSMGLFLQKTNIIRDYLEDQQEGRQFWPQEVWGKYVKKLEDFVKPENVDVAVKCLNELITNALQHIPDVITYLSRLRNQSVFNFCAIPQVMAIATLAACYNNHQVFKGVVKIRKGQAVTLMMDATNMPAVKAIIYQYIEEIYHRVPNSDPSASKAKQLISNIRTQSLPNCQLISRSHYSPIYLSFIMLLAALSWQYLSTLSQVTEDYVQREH
Assay: Tested for the squalene synthetase inhibitory activity in rat liver microsomal assay
Assay type: microsomes

Structure (SMILES) | IC50 [nM]
CC(C)=CCC/C(C)=C/CC/C(C)=C/CNCc1ccccc1.O=P(O)(O)OP(=O)(O)O | 10
CC(C)=CCC/C(C)=C/CC/C(C)=C/CN(CCP(=O)(O)C(C)(C)P(=O)(O)O)Cc1ccccc1 | 20
